Common to all, as to assay: GloSensor cAMP assay
Type in all cases: cell-based
(In general: Cyclic AMP is a second messenger, typically raised through Gs and lowered through Gi signalling.)

The target in experiment [1] is T1, ADGRG2-ΔGPS-β I663A (Mus musculus, UniProt Q8CJ12, I677A).
T1 construct: expressed in transfected cells; host or cells: HEK293
Conditions: mutant I663A; HEK293, cAMP Glosensor. From the text:
(§1) Wildtype ADGRG2 full-length (ADGRG2-FL) was cloned from mouse total cDNA libraries using the following primers: forward, […]; reverse, […], and then ADGRG2-FL, ADGRG2 C-terminal truncation mutant (ADGRG2-β), and ADGRG2-ΔGPS-β (the entire ECD of ADGRG2 was deleted) were subcloned into the pcDNA3.1 expression vector. The ADGRG2-ΔGPS-β mutants (T610A, Y611A, C614A, S661A, W662A, I663A, L665A, Y666A，N667A, F671A, L679A, L683A, I730A, V731A, F741A, F747A, W757A, I758A, N759A, S760A, V762A, F764A, Y765A, V768A, V769A, F772A, V774A, W824A, F826A, F828A, F829A, V834A, V836A, F838A, M839A, I844A, F845A) were generated using a QuikChange Mutagenesis Kit (Stratagene). All mutations were verified by DNA sequencing.
(§2) The Glosensor cAMP assay was performed as described ([6], [39], [40]). HEK293 cells were transfected with the GloSensor plasmid and the desired expression plasmids in 24-well dishes. Twenty-four hours after transfection, the cells were plated on 96-well plates at a cell density of 20,000 cells/well. The cells were maintained in Dulbecco’s modified Eagle’s medium for another 24 h, washed with PBS, and then incubated with 100 μl of solution containing 10% fetal bovine serum, 2% (v/v) GloSensor cAMP reagent, and 88% CO2-independent medium in each well for 2 h. The cAMP signal was examined using a luminescence counter (Mithras LB 940).

Experiment [2] has as its target T2, ADGRG2-ΔGPS-β V774A (Mus musculus, UniProt Q8CJ12, V788A).
T2 construct: expressed in transfected cells; host or cells: HEK293
The settings on record: mutant V774A; HEK293, cAMP Glosensor.
Excerpt: as §1, §2

Experiment [3] concerns the target T3, ADGRG2-ΔGPS-β F828A (Mus musculus, UniProt Q8CJ12, F842A).
T3 construct: expressed in transfected cells; host or cells: HEK293
Conditions: mutant F828A; HEK293, cAMP Glosensor.
Excerpt: as §1, §2

Experiment [4] deals with T4, ADGRG2-ΔGPS-β I730A (Mus musculus, UniProt Q8CJ12, I744A).
T4 construct: expressed in transfected cells; host or cells: HEK293
T4 sequence (Q8CJ12 614-1009 I744A): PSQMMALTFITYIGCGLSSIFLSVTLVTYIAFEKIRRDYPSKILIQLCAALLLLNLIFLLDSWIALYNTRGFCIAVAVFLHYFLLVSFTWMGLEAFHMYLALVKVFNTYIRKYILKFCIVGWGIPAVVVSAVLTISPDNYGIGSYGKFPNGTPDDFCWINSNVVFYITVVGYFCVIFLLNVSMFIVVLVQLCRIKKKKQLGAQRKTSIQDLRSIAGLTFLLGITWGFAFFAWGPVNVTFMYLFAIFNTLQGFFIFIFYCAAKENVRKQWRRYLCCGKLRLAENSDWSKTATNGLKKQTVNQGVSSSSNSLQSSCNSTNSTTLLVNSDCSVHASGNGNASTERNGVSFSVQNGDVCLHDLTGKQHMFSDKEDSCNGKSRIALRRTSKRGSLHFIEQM
Conditions: mutant I730A; HEK293, cAMP Glosensor.
Excerpt: as §1, §2

In experiment [5] the target is T5, ADGRG2-ΔGPS-β F826A (Mus musculus, UniProt Q8CJ12, F840A).
T5 construct: expressed in transfected cells; host or cells: HEK293
T5 sequence (Q8CJ12 614-1009 F840A): as the sequence (Q8CJ12 614-1009 I744A) above, with A131I, F227A counted along it
Conditions: mutant F826A; HEK293, cAMP Glosensor.
Excerpt: as §1, §2

In experiment [6] the target is T6, ADGRG2-ΔGPS-β I844A (Mus musculus, UniProt Q8CJ12, I858A).
T6 construct: expressed in transfected cells; host or cells: HEK293
T6 sequence (Q8CJ12 614-1009 I858A): as the sequence (Q8CJ12 614-1009 I744A) above, with A131I, I245A counted along it
The settings on record: mutant I844A; HEK293, cAMP Glosensor.
Excerpt: as §1, §2

Experiment [7] concerns the target T7, ADGRG2-ΔGPS-β F845A (Mus musculus, UniProt Q8CJ12, F859A).
T7 construct: expressed in transfected cells; host or cells: HEK293
Conditions: mutant F845A; HEK293, cAMP Glosensor.
Excerpt: as §1, §2

In experiment [8] the target is T8, ADGRG2-ΔGPS-β T610A (Mus musculus, UniProt Q8CJ12, T624A).
T8 construct: expressed in transfected cells; host or cells: HEK293
T8 sequence (Q8CJ12 614-1009 T624A): as the sequence (Q8CJ12 614-1009 I744A) above, with T11A, A131I counted along it
The settings on record: mutant T610A; HEK293, cAMP Glosensor.
Excerpt: as §1, §2

Experiment [9] concerns the target T9, ADGRG2-ΔGPS-β L683A (Mus musculus, UniProt Q8CJ12, L697A).
T9 construct: expressed in transfected cells; host or cells: HEK293
Conditions: mutant L683A; HEK293, cAMP Glosensor.
Excerpt: as §1, §2

For experiment [10], the target named is T10, ADGRG2-ΔGPS-β F838A (Mus musculus, UniProt Q8CJ12, F852A).
T10 construct: expressed in transfected cells; host or cells: HEK293
T10 sequence (Q8CJ12 614-1009 F852A): as the sequence (Q8CJ12 614-1009 I744A) above, with A131I, F239A counted along it
Conditions: mutant F838A; HEK293, cAMP Glosensor.
Excerpt: as §1, §2

In experiment [11] the target is T11, ADGRG2-ΔGPS-β N759A (Mus musculus, UniProt Q8CJ12, N773A).
T11 construct: expressed in transfected cells; host or cells: HEK293
T11 sequence (Q8CJ12 614-1009 N773A): as the sequence (Q8CJ12 614-1009 I744A) above, with A131I, N160A counted along it
Conditions: mutant N759A; HEK293, cAMP Glosensor.
Excerpt: as §1, §2

In experiment [12] the target is T12, ADGRG2-ΔGPS-β F772A (Mus musculus, UniProt Q8CJ12, F786A).
T12 construct: expressed in transfected cells; host or cells: HEK293
T12 sequence (Q8CJ12 614-1009 F786A): as the sequence (Q8CJ12 614-1009 I744A) above, with A131I, F173A counted along it
The settings on record: mutant F772A; HEK293, cAMP Glosensor.
Excerpt: as §1, §2

Experiment [13] addresses T13, ADGRG2-ΔGPS-β S661A (Mus musculus, UniProt Q8CJ12, S675A).
T13 construct: expressed in transfected cells; host or cells: HEK293
The settings on record: mutant S661A; HEK293, cAMP Glosensor.
Excerpt: as §1, §2

Experiment [14] has as its target T14, ADGRG2-ΔGPS-β V768A (Mus musculus, UniProt Q8CJ12, V782A).
T14 construct: expressed in transfected cells; host or cells: HEK293
The settings on record: mutant V768A; HEK293, cAMP Glosensor.
Excerpt: as §1, §2

The target of experiment [15] is T15, ADGRG2-ΔGPS-β Y611A (Mus musculus, UniProt Q8CJ12, Y625A).
T15 construct: expressed in transfected cells; host or cells: HEK293
T15 sequence (Q8CJ12 614-1009 Y625A): as the sequence (Q8CJ12 614-1009 I744A) above, with Y12A, A131I counted along it
The settings on record: mutant Y611A; HEK293, cAMP Glosensor.
Excerpt: as §1, §2

In experiment [16] the target is T16, ADGRG2-ΔGPS-β V762A (Mus musculus, UniProt Q8CJ12, V776A).
T16 construct: expressed in transfected cells; host or cells: HEK293
T16 sequence (Q8CJ12 614-1009 V776A): as the sequence (Q8CJ12 614-1009 I744A) above, with A131I, V163A counted along it
Conditions: mutant V762A; HEK293, cAMP Glosensor.
Excerpt: as §1, §2

Experiment [17] has as its target T17, ADGRG2-ΔGPS-β F764A (Mus musculus, UniProt Q8CJ12, F778A).
T17 construct: expressed in transfected cells; host or cells: HEK293
Conditions: mutant F764A; HEK293, cAMP Glosensor.
Excerpt: as §1, §2

Experiment [18] deals with T18, ADGRG2-ΔGPS-β W757A (Mus musculus, UniProt Q8CJ12, W771A).
T18 construct: expressed in transfected cells; host or cells: HEK293
T18 sequence (Q8CJ12 614-1009 W771A): as the sequence (Q8CJ12 614-1009 I744A) above, with A131I, W158A counted along it
The settings on record: mutant W757A; HEK293, cAMP Glosensor.
Excerpt: as §1, §2

Experiment [19] addresses T19, ADGRG2-ΔGPS-β I741A (Mus musculus, UniProt Q8CJ12, I755A).
T19 construct: expressed in transfected cells; host or cells: HEK293
Conditions: mutant I741A; HEK293, cAMP Glosensor.
Excerpt: as §1, §2

Experiment [20] addresses T20, ADGRG2-ΔGPS-β Y666A (Mus musculus, UniProt Q8CJ12, Y680A).
T20 construct: expressed in transfected cells; host or cells: HEK293
The settings on record: mutant Y666A; HEK293, cAMP Glosensor.
Excerpt: as §1, §2

The structures appear in SMILES notation. Non-standard residues stand in square brackets, D forms with d. Residues, ends and D or L forms follow the SMILES beside them. Phe(4-Me) = Cc1ccc(C[C@H](N)C(=O)O)cc1

T20 sequence (Q8CJ12 614-1009 Y680A): as the sequence (Q8CJ12 614-1009 I744A) above, with Y67A, A131I counted along it
T13 sequence (Q8CJ12 614-1009 S675A): as the sequence (Q8CJ12 614-1009 I744A) above, with S62A, A131I counted along it
T3 sequence (Q8CJ12 614-1009 F842A): as the sequence (Q8CJ12 614-1009 I744A) above, with A131I, F229A counted along it
T14 sequence (Q8CJ12 614-1009 V782A): as the sequence (Q8CJ12 614-1009 I744A) above, with A131I, V169A counted along it
T19 sequence (Q8CJ12 614-1009 I755A): as the sequence (Q8CJ12 614-1009 I744A) above, with A131I, I142A counted along it
T7 sequence (Q8CJ12 614-1009 F859A limits assumed): as the sequence (Q8CJ12 614-1009 I744A) above, with A131I, F246A counted along it
T9 sequence (Q8CJ12 614-1009 L697A): as the sequence (Q8CJ12 614-1009 I744A) above, with L84A, A131I counted along it
T17 sequence (Q8CJ12 614-1009 F778A): as the sequence (Q8CJ12 614-1009 I744A) above, with A131I, F165A counted along it
T2 sequence (Q8CJ12 614-1009 V788A limits assumed): as the sequence (Q8CJ12 614-1009 I744A) above, with A131I, V175A counted along it
T1 sequence (Q8CJ12 614-1009 I677A): as the sequence (Q8CJ12 614-1009 I744A) above, with I64A, A131I counted along it

For `CC[C@H](C)[C@H](NC(=O)CNC(=O)[C@H](Cc1ccc(C)cc1)NC(=O)[C@H](CO)NC(=O)[C@@H](N)C(C)C)C(=O)N[C@@H](CC(C)C)C(=O)N[C@@H](CC(C)C)C(=O)N[C@@H](CC(=O)O)C(=O)N[C@@H](CC(C)C)C(=O)N[C@@H](CO)C(=O)N[C@@H](CCCNC(=N)N)C(=O)N[C@H](C(=O)N[C@@H](CO)C(=O)N[C@@H](CC(C)C)C(=O)N1CCC[C@H]1C(=O)O)[C@@H](C)O` [VPM-p15] (H-VS[Phe(4-Me)]GILLDLSRTSLP-OH), the EC50 (usually the midpoint of the concentration-response curve) stood at 1.2 µM in experiment [1]; 1.28 µM in experiment [2]; 3.88 µM in [3]; 1.33 µM in experiment [4]; 6.6 µM in experiment [5]; 12.9 µM in [6]. The concentration giving a half-maximal response (EC50) in experiment [7] was determined as 3.21 µM; in experiment [8], 1.03 µM; in experiment [9], 1.31 µM; in [10], 1.7 µM; in experiment [11] it was 4.76 µM; in [12], 2.19 µM. The EC50 in experiment [13] was found to be 2.32 µM; in [14], 7.39 µM; in experiment [15], 1.06 µM; in experiment [16], 2.35 µM; in [17], 0.938 µM; in [18], 14.2 µM. The figures for the EC50 in experiment [19] and in experiment [20] were 1.55 µM and 1.13 µM, respectively.

The values are drawn from PMC7948503, “Optimization of a peptide ligand for the adhesion GPCR ADGRG2 provides a potent tool to explore receptor biology” (The Journal of Biological Chemistry, 2020).
